Structures are written as SMILES.

The conditions of the data set: in vivo, po, 150 mg. The protocol: This example describes an in-vivo study, which measured plasma concentrations of bupropion achieved after oral administration of reference Wellbutrin® SR tablet and test bupropion hydrochloride sustained release tablets of example 1. The in-vivo study was carried out on 12+2 standby healthy adult subjects under fasting conditions. Plasma bupropion was determined over a 120 hour period, after single oral administration of the respective formulations. Each subject was administered each of the two formulations in cross over design separated by a washout period of 14 days between administrations of the two formulations. Plasma levels were measured at predetermined times utilizing a validated assay method employing LC-MS/MS instrumentation. Plasma pharmacokinetic parameters were evaluated using commercially available software WinNonlin version 5.0.1 or higher. The statistical analysis was performed using SAS® package (SAS® Institute Inc., USA version 9.1 or higher). Values derived at each time point and to determine the area under the curve (AUC) and maximum concentration (Cmax) afforded by Wellbutrin®SR and the test formulation.

For the compound `CC(NC(C)(C)C)C(=O)c1cccc(Cl)c1` (stereo not drawn) [Wellbutrin ®SR], the AUC0-t came out at 894.88 ngh/ml; the AUC0-α is recorded as 951.251 ngh/ml; the Cmax (as a rule, the maximum level reached in the sampled fluid or tissue) worked out at 111.178 ng/mL.

(Values after patent US20100291225A1, “Stabilized Sustained Release Composition of Bupropion Hydrochloride and Process For Preparing the Same” (priority 2008, published 2010).)
